Reference: US7517529B2, “Treatment of type I diabetes” (Biotempt B.V., priority 2003, dated 2009)
Ends that are not written are not given here.

Assays:
[1] = system: NFκB; assay: EMSA of nuclear extracts, basal and LPS-induced NFκB translocation in RAW 264.7 mouse macrophages; assay type: cell-based; settings: 30 minutes; for LPS-induced translocation of NFκB: LPS in combination with peptide (1 microgr/ml; 1 mg/ml); for Basal levels of NFκB in the nucleus: peptide without LPS
Experimental: RAW 264.7 mouse macrophages were cultured in DMEM, containing 10% or 2% FBS, penicillin, streptomycin and glutamine, at 37° C., 5% CO2. Cells were seeded in a 12-wells plate (3×10^6 cells/ml) in a total volume of 1 ml for two hours and then stimulated with LPS (E. coli 026:B6; Difco Laboratories, Detroit, Mich., USA) and/or gene-regulatory peptide (1 microgr/ml). After 30 minutes of incubation, plates were centrifuged and cells were collected for nuclear extracts. Nuclear extracts and EMSA were prepared according to Schreiber et al. Cells were collected in a tube and centrifuged for five minutes at 2000 rpm (rounds per minute) at 4° C. (Universal 30 RF, Hettich Zentrifuges). The pellet was washed with ice-cold Tris buffered saline (TBS pH 7.4) and resuspended in 400 μl of a hypotonic buffer A (10 mM HEPES pH 7.9, 10 mM KCl, 0.1 mM EDTA, 0.1 mM EGTA, 1 mM DTT, 0.5 mM PMSF and protease inhibitor cocktail (Complete™ Mini, Roche) and left on ice for 15 minutes. Twenty-five microliters 10% NP-40 was added and the sample was centrifuged (two minutes, 4000 rpm, 4° C.). The supernatant (cytoplasmic fraction) was collected and stored at −70° C. The pellet, which contains the nuclei, was washed with 50 μl buffer A and resuspended in 50 μl buffer C (20 mM HEPES pH 7.9, 400 mM NaCl, 1 mM EDTA, 1 mM EGTA, 1 mM DTT, 0.5 mM PMSF and protease inhibitor cocktail and 10% glycerol). The samples were left to shake at 4° C. for at least 60 minutes. Finally the samples were centrifuged and the supernatant (nucleic fraction) was stored at −70° C.
Bradford reagent (Sigma) was used to determine the final protein concentration in the extracts. For electrophoretic mobility shift assays an oligonucleotide representing NFκB-binding sequence (5′-AGCTCAGAGGGGGACTTTCCGAGAG-3′ (SEQ ID NO:28)) was synthesized. Hundred pico mol sense and antisense oligo were annealed and labeled with […] using T4 polynucleotide kinase according to the manufacturer's instructions (Promega, Madison, Wis.). Nuclear extract (5 to 7.5 μg) was incubated for 30 minutes with 75000 cpm probe in binding reaction mixture (20 microliters) containing 0.5 μg poly dI-dC (Amersham Pharmacia Biotech) and binding buffer BSB (25 mM MgCl2, 5 mM CaCl2, 5 mM DTT and 20% Ficoll) at room temperature. The DNA-protein complex was resolved from free oligonucleotide by electrophoresis in a 4 to 6% polyacrylamide gel (150 V, two to four hours). The gel was then dried and exposed to x-ray film. The transcription factor NFκB participates in the transcriptional regulation of a variety of genes. Nuclear protein extracts were prepared from either LPS (1 mg/ml), peptide (1 mg/ml) or LPS in combination with peptide-treated and untreated RAW264.7 cells. In order to determine whether the peptides modulate the translocation of NFκB into the nucleus, on these extracts EMSA was performed. Peptides are able to modulate the basal as well as LPS-induced levels of NFκB. In this experiment peptides that show the inhibition of LPS-induced translocation of NFκB are: […] (SEQ ID NO:21), […] (SEQ ID NO:22), LQG, LQGV (SEQ ID NO:1), […] (SEQ ID NO:23), VLPALP (SEQ ID NO:4), VVC, MTR and circular […] (SEQ ID NO: 17). Peptides that in this experiment promote LPS-induced translocation of NFκB are: VLPALPQ (SEQ ID NO:13), GVLPALP (SEQ ID NO:16) and MTRV (SEQ ID NO:20). Basal levels of NFκB in the nucleus was decreased by […] (SEQ ID NO:21), […] (SEQ ID NO:22), LQG and LQGV (SEQ ID NO:1) while basal levels of NFκB in the nucleus was increased by […] (SEQ ID NO:23), VLPALPQ (SEQ ID NO:13), GVLPALP (SEQ ID NO:16), VVC, MTRV (SEQ ID NO:20), MTR and […].

[2] = system: relapsing-remitting multiple sclerosis; settings: treated group, trial of 251 patients; cited from earlier work
[3] = system: production of NO by a cell; assay: Production of NO by a cell; assay type: cell-based
[4] = system: NFκB; assay: Other experiments on translocation of NFκB into nucleus (data not shown); assay type: cell-based

Row | Substance | LPS-induced translocation of NFκB [1] | Basal levels of NFκB in the nucleus [1] | annual relapse rate reduced by [2] | production of NO by a cell [3] | modulation of translocation of NFκB into nucleus [4]
1 | GVLPALP | promote | increased |  |  | 
2 | GVLPALPQ | inhibition | increased |  |  | 
3 | Glatiramer acetate |  |  | 25% |  | 
4 | LQG | inhibition | decreased |  | capable of reducing production of NO by a cell | 
5 | LQGV | inhibition | decreased |  | capable of reducing production of NO by a cell | 
6 | LQGVLPALPQ | inhibition | decreased |  | capable of reducing production of NO by a cell | 
7 | LQGVLPALPQVVC |  | increased |  |  | 
8 | MTR | inhibition | increased |  |  | 
9 | MTRV | promote | increased |  |  | 
10 | QVVC |  |  |  |  | modulation of translocation of NFκB into nucleus
11 | VLPALP | inhibition |  |  | capable of reducing production of NO by a cell | 
12 | VLPALPQ | promote | increased |  |  | 
13 | VLPALPQVVC | inhibition | decreased |  | capable of reducing production of NO by a cell | 
14 | VVC | inhibition | increased |  |  | 
15 | circular LQGVLPALPQVVC (also: circular/cyclised, mode not given here) | inhibition |  |  |  | 
